In patent publication US20240092741A1, “COMPOSITION FOR PREVENTION OR TREATMENT OF NEUROFIBROMATOSIS TYPE 2 SYNDROME” (PRG S&TECH INC., priority 2021, published 2024):

What was measured:
[1] = molecular target: T1, interaction between TβR1 and RKIP (Homo sapiens, UniProt P30086+P36897); experiment: Immunoprecipitation of TβR1-RKIP interaction in transfected HEI-193 cells; format: cell-based; conditions: FLAG-TβR1- or HA-RKIP-transfected HEI-193 cells, indicated concentrations, 6 h (FIGS. 8A, 9A)
T1 construct: host or cells: HEI-193
T1 sequence (P36897 34-503): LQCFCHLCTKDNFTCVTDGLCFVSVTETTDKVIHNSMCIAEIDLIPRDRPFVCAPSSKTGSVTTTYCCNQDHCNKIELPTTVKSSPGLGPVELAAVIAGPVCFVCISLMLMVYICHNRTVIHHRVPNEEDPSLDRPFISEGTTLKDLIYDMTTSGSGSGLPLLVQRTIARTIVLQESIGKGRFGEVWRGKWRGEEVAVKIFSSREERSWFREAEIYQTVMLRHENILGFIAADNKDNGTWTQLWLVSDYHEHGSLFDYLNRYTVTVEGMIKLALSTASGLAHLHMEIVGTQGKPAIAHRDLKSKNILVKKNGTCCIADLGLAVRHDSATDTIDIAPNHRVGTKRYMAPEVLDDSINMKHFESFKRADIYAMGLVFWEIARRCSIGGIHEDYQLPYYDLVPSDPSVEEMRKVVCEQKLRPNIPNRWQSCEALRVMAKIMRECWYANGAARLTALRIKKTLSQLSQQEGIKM
T1 sequence (P30086 2-187 limits assumed): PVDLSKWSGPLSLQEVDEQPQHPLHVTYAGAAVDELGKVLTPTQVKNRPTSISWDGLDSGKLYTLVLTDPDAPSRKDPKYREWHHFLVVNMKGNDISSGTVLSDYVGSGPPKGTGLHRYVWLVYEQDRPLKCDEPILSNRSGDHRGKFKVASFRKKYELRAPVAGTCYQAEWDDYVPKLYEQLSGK
Description: For protein-protein interaction analysis, glutathione S-transferase (GST)-pull down assay was performed. For GST-pull down, agarose-bead-conjugated GST-RKIP recombinant protein was reacted with FLAG-tagged TβR1-transfected HEK 293 cell lysates in PBS buffer at 4° C. for 1 hour. Immunoprecipitation (IP) assay was performed by reacting with FLAG-tagged TβR1- or HA-tagged RKIP-transfected HEI-193 cell lysates in PBS buffer. Whole lysates were reacted with appropriate primary antibodies at 4° C. for 2 hours and with agarose-bead-conjugated protein A/G (Invitrogen, Carlsbad, CA, USA) for 2 hours. After centrifugation, the precipitates were washed twice with RIPA buffer and subjected to SDS-PAGE and western blotting analysis.

RKIP = RKIP / p-Erk immunoblotting in mouse schwannoma (mouse NF2) cells; format: cell-based
Description: Cells were harvested and lysed using RIPA buffer [50 mM Tris-Cl, pH 7.5, 150 mM NaCl, 1% NP-40, 0.1% SDS, and 10% sodium deoxycholate] to examine cellular signaling. Protein concentrations in samples were measured using Bio-Rad (Hercules, CA, USA) protein assay kits and BSA standards. The samples (20 μg protein per lane) were separated by sodium dodecyl sulfate-polyacrylamide gel electrophoresis (SDS-PAGE), transferred to Immobilon-P^SQ transfer membranes (Millipore Corp., MA, USA), which were then cultured with 3% skim milk-containing TBS-T buffer (Tris-HCl-based buffer containing 20 mM Tris pH 7.6, 150 mM NaCl, and 0.05% Tween 20) for 1 hour at room temperature and then reacted with primary antibody in TBS-T overnight at 4° C. The membranes were then washed and reacted with secondary horseradish peroxidase (HRP)-conjugated antibodies [goat anti-mouse, goat anti-rabbit, and mouse anti-goat antibodies (Pierce, Thermo Fisher Scientific, Inc., Rockford, IL, USA)] in TBS-T at room temperature for 2 hours. The blots were detected using an HRP-conjugated secondary antibody using ECL kit (Intron, Seoul, Korea).

TGF-β signaling = experiment: 3TP-luciferase assay in HEI-193 cells; format: cell-based, human; conditions: high concentrations, TGF-β1 2 ng/ml (FIG. 8D)
Description: To estimate the transcriptional activity of TGF-β signaling, 3TP-Luc vectors were transfected into cells for 24 hours, and the cells were treated with the indicated chemicals. After washing with wash buffer (Promega, Wisconsin, USA), the cells were lysed using lysis buffer (Promega, Wisconsin, USA). Luciferase activity was measured using a luminometer (MicroDigital, Gyeonggi-do, Korea).

mouse schwannoma cells = experiment: Allograft tumor growth assay; format: in vivo
Description: For allograft, 1×10^7 mouse schwannoma cells were seeded subcutaneously on FVB/NJ mice (8 weeks old). Tumor-bearing mice were administered with the carrier (n=8) or PRG-N-01 (20 mg/kg; n=8) by intraperitoneal injection for 5 weeks (3 times per week). Every week, the tumor volume and body weight were measured. After termination of the experiment in each group, mice were dissected, and tumor tissues were isolated.
To examine the in vivo effect of PRG-N-01, NF2 model mouse-derived schwannoma cells were allografted to 8-week-old mice, and PRG-N-01 was administered by intraperitoneal injection (20 mg/kg, 3 times a week).

[2] = isolated allograft tumors, RT-PCR (FIG. 17E)

SMILES: CCN(CC)CCOc1ccc(-c2nnn(Cc3ccc(OC)cc3)c2N)cc1 [PRG-N-01, 4-(4-(2-(diethylamino)ethoxy)phenyl)-1-(4-methoxybenzyl)-1H-1,2,3-triazol-5-amino]
- binding between TβR1 and RKIP (IP) [1]: interrupted the binding in a dose-dependent manner
- RKIP expression (RKIP; mouse NF2 cell line): increased RKIP expression
- RKIP induction and p-Erk suppression (RKIP; mouse schwannoma cells, 36 h (FIG. 9B)): observed only in actual mouse schwannoma
- TGF-β signaling (3TP-luciferase activity) (TGF-β signaling): did not inhibit TGF-β signaling even at high concentrations
- SOX2 mRNA in tumor tissues (mouse schwannoma cells; [2]): reduction
- schwann cell markers and SOX10 mRNA in tumor tissues (mouse schwannoma cells; [2]): induction
- RKIP, schwann cell markers (PLP, MBP, MPZ) and SOX10 at the protein level in tumor tissues (mouse schwannoma cells; isolated allograft tumors, immunoblotting (FIG. 17D)): induction
- tumor growth (mouse schwannoma cells; mouse schwannoma allograft in FVB/NJ mice, 20 mg/kg i.p., 3 times a week, 5 weeks): inhibited tumor growth
- tumor size and weight (mouse schwannoma cells; mouse schwannoma allograft, 20 mg/kg i.p., 3 times a week, 5 weeks (FIGS. 17B, 17C)): obviously suppressed
